# Data as given in ChEMBL document CHEMBL1799932, “Antimalarial pyrido[1,2-a]benzimidazoles” (J Med Chem, 2011).
# Assays:
# Plasmodium berghei [1] = assay: Antimalarial activity against GFP-transfected Plasmodium berghei strain ANKA infected in NMRI mouse assessed as reduction in parasitemia at 50 mg/kg, po administered as single dose measured on day 2 by FACS analysis; format: functional; set-up: scale not given: the % may be the effect or the level left
# [2] = Metabolic stability in mouse liver microsomes assessed as intrinsic clearance per mg protein after 60 mins by LC-MS analysis; format: ADME, Microsome
# [3] = Metabolic stability in human liver microsomes assessed as intrinsic clearance per mg protein after 60 mins by LC-MS analysis; format: ADME, Microsome
# [4] = Metabolic stability in rat liver microsomes assessed as intrinsic clearance per mg protein after 60 mins by LC-MS analysis; format: ADME, Microsome
# Rattus norvegicus [5] = assay: Tmax in fasted Sprague-Dawley rat assessed as 1-(2-Ethylaminoethylamino)-3-[4-(trifluoromethyl)phenyl]- pyrido[1,2-a]benzimidazole-4-carbonitrile level at 20 mg/kg, po after 48 hrs by LC-MS analysis; format: ADME, organism-based; set-up: dose 20 mg/kg, route oral; conditions: in vivo
# Rattus norvegicus [6] = assay: AUC (0 to tlast) in fasted Sprague-Dawley rat assessed as 1-(2-Ethylaminoethylamino)-3-[4-(trifluoromethyl)phenyl]- pyrido[1,2-a]benzimidazole-4-carbonitrile level at 20 mg/kg, po after 48 hrs by LC-MS analysis; format: ADME, organism-based, Plasma; set-up: time < 48 hr, dose 20 mg/kg, route oral; conditions: in vivo
# Rattus norvegicus [7] = assay: AUC (0 to tlast) in fasted Sprague-Dawley rat assessed as 1-(2-Ethylaminoethylamino)-3-[4-(trifluoromethyl)phenyl]- pyrido[1,2-a]benzimidazole-4-carbonitrile level at 5 mg/kg, iv after 48 hrs by LC-MS analysis; format: ADME, organism-based, Plasma; set-up: time < 48 hr, dose 5 mg/kg, route intravenous; conditions: in vivo
# Rattus norvegicus [8] = assay: Cmax in fasted Sprague-Dawley rat assessed as 1-(2-Ethylaminoethylamino)-3-[4-(trifluoromethyl)phenyl]- pyrido[1,2-a]benzimidazole-4-carbonitrile level at 20 mg/kg, po after 48 hrs by LC-MS analysis; format: ADME, organism-based; set-up: dose 20 mg/kg, route oral; conditions: in vivo
# Rattus norvegicus [9] = assay: Drug excretion in fasted Sprague-Dawley rat urine assessed as 1-(2-Ethylaminoethylamino)-3-[4-(trifluoromethyl)phenyl]- pyrido[1,2-a]benzimidazole-4-carbonitrile level at 20 mg/kg, po after 48 hrs by LC-MS analysis; format: ADME, organism-based; set-up: dose 20 mg/kg, route oral; conditions: in vivo
# Plasma [10] = assay: Plasma protein binding in human assessed as 1-(2-Ethylaminoethylamino)-3-[4-(trifluoromethyl)phenyl]-pyrido[1,2-a]benzimidazole-4-carbonitrile at 5 mg/kg, iv after 48 hrs by LC-MS analysis; format: ADME, organism-based; set-up: dose 5 mg/kg, route intravenous; conditions: in vivo
# Plasma [11] = assay: Plasma protein binding in mouse assessed as 1-(2-Ethylaminoethylamino)-3-[4-(trifluoromethyl)phenyl]-pyrido[1,2-a]benzimidazole-4-carbonitrile at 5 mg/kg, iv after 48 hrs by LC-MS analysis; format: ADME, organism-based; set-up: dose 5 mg/kg, route intravenous; conditions: in vivo
# Plasmodium berghei [12] = assay: Antimalarial activity against GFP-transfected Plasmodium berghei strain ANKA infected in NMRI mouse assessed as reduction in parasitemia at 50 mg/kg, po administered as single dose measured on day 3 by FACS analysis; format: functional; set-up: scale not given: the % may be the effect or the level left
# Plasmodium berghei [13] = assay: Antimalarial activity against GFP-transfected Plasmodium berghei strain ANKA infected in NMRI mouse assessed as reduction in parasitemia at 50 mg/kg, po administered as single dose measured on day 4 by FACS analysis; format: functional; set-up: scale not given: the % may be the effect or the level left
# Plasmodium berghei [14] = assay: Antimalarial activity against GFP-transfected Plasmodium berghei strain ANKA infected in NMRI mouse assessed as reduction in parasitemia at 50 mg/kg, po administered as single dose measured on day 5 by FACS analysis; format: functional; set-up: scale not given: the % may be the effect or the level left
# Plasmodium berghei [15] = assay: Antimalarial activity against GFP-transfected Plasmodium berghei strain ANKA infected in NMRI mouse assessed as reduction in parasitemia at 25 mg/kg, po administered as single dose measured on day 2 by FACS analysis; format: functional; set-up: scale not given: the % may be the effect or the level left
# Plasmodium berghei [16] = assay: Antimalarial activity against GFP-transfected Plasmodium berghei strain ANKA infected in NMRI mouse assessed as reduction in parasitemia at 25 mg/kg, po administered as single dose measured on day 3 by FACS analysis; format: functional; set-up: scale not given: the % may be the effect or the level left
# Plasmodium berghei [17] = assay: Antimalarial activity against GFP-transfected Plasmodium berghei strain ANKA infected in NMRI mouse assessed as reduction in parasitemia at 25 mg/kg, po administered as single dose measured on day 4 by FACS analysis; format: functional; set-up: scale not given: the % may be the effect or the level left
# Plasmodium berghei [18] = assay: Antimalarial activity against GFP-transfected Plasmodium berghei strain ANKA infected in NMRI mouse assessed as reduction in parasitemia at 25 mg/kg, po administered as single dose measured on day 5 by FACS analysis; format: functional; set-up: scale not given: the % may be the effect or the level left
# [19] = Metabolic stability in human liver microsomes assessed as degradation half life after 60 mins by LC-MS analysis; format: ADME, Microsome
# [20] = Metabolic stability in rat liver microsomes assessed as degradation half life after 60 mins by LC-MS analysis; format: ADME, Microsome
# [21] = Metabolic stability in mouse liver microsomes assessed as degradation half life after 60 mins by LC-MS analysis; format: ADME, Microsome
# Plasmodium berghei [22] = assay: Antimalarial activity against GFP-transfected Plasmodium berghei strain ANKA infected in NMRI mouse assessed as reduction in parasitemia at 3 mg/kg, po administered as multiple dose for 4 days measured 24 hrs after last treatment; format: functional; set-up: scale not given: the % may be the effect or the level left
# Plasmodium berghei [23] = assay: Antimalarial activity against GFP-transfected Plasmodium berghei strain ANKA infected in NMRI mouse assessed as reduction in parasitemia at 6 mg/kg, po administered as single dose for 4 days measured 24 hrs after last treatment; format: functional; set-up: scale not given: the % may be the effect or the level left
# Plasmodium berghei [24] = assay: Antimalarial activity against GFP-transfected Plasmodium berghei strain ANKA infected in NMRI mouse assessed as reduction in parasitemia at 12.5 mg/kg, po administered as multiple dose for 4 days measured 24 hrs after last treatment; format: functional; set-up: scale not given: the % may be the effect or the level left
# Plasmodium berghei [25] = assay: Antimalarial activity against GFP-transfected Plasmodium berghei strain ANKA infected in NMRI mouse assessed as reduction in parasitemia at 25 mg/kg, po administered as single dose for 4 days measured 24 hrs after last treatment; format: functional; set-up: scale not given: the % may be the effect or the level left
# Plasmodium berghei [26] = assay: Antimalarial activity against GFP-transfected Plasmodium berghei strain ANKA infected in NMRI mouse assessed as reduction in parasitemia at 50 mg/kg, po administered as multiple dose for 4 days measured 24 hrs after last treatment; format: functional; set-up: scale not given: the % may be the effect or the level left
# Plasmodium berghei [27] = assay: Antimalarial activity against GFP-transfected Plasmodium berghei strain ANKA infected in NMRI mouse assessed as increase in median survival time at 3 mg/kg, po administered as single dose for 4 days measured 24 hrs after last treatment (reference value: 6.5 days ); format: functional
# Plasmodium berghei [28] = assay: Antimalarial activity against GFP-transfected Plasmodium berghei strain ANKA infected in NMRI mouse assessed as increase in median survival time at 6 mg/kg, po administered as multiple dose for 4 days measured 24 hrs after last treatment (reference value: 6.5 days ); format: functional
# Plasmodium berghei [29] = assay: Antimalarial activity against GFP-transfected Plasmodium berghei strain ANKA infected in NMRI mouse assessed as increase in median survival time at 12.5 mg/kg, po administered as multiple dose for 4 days measured 24 hrs after last treatment (reference value: 6.5 days ); format: functional
# Plasmodium berghei [30] = assay: Antimalarial activity against GFP-transfected Plasmodium berghei strain ANKA infected in NMRI mouse assessed as increase in median survival time at 25 mg/kg, po administered as multiple dose for 4 days measured 24 hrs after last treatment (reference value: 6.5 days ); format: functional
# Plasmodium berghei [31] = assay: Antimalarial activity against GFP-transfected Plasmodium berghei strain ANKA infected in NMRI mouse assessed as increase in median survival time at 50 mg/kg, po administered as multiple dose for 4 days measured 24 hrs after last treatment (reference value: 6.5 days ); format: functional
# Rattus norvegicus [32] = assay: Apparent half life in fasted Sprague-Dawley rat assessed as 1-(2-Ethylaminoethylamino)-3-[4-(trifluoromethyl)phenyl]- pyrido[1,2-a]benzimidazole-4-carbonitrile level at 5 mg/kg, iv after 48 hrs by LC-MS analysis; format: ADME, organism-based; set-up: dose 5 mg/kg, route intravenous; conditions: in vivo
# Rattus norvegicus [33] = assay: Drug excretion in fasted Sprague-Dawley rat urine assessed as 1-(2-Ethylaminoethylamino)-3-[4-(trifluoromethyl)phenyl]- pyrido[1,2-a]benzimidazole-4-carbonitrile level at 5 mg/kg, iv after 48 hrs by LC-MS analysis; format: ADME, organism-based; set-up: dose 5 mg/kg, route intravenous; conditions: in vivo
# Plasmodium berghei [34] = assay: Antimalarial activity against GFP-transfected Plasmodium berghei strain ANKA infected in NMRI mouse assessed as increase in mean survival time at 25 mg/kg, po administered as single dose (reference value: 5 days )
# Plasmodium berghei [35] = assay: Antimalarial activity against GFP-transfected Plasmodium berghei strain ANKA infected in NMRI mouse assessed as increase in mean survival time at 50 mg/kg, po administered as single dose (reference value: 5 days )
# Rattus norvegicus [36] = assay: Apparent volume of distribution in fasted Sprague-Dawley rat plasma assessed as 1-(2-Ethylaminoethylamino)-3-[4-(trifluoromethyl)phenyl]- pyrido[1,2-a]benzimidazole-4-carbonitrile level at 5 mg/kg, iv after 48 hrs by LC-MS analysis; conditions: in vivo
smiles,measurement,setting,value
CCNCCNc1cc(-c2ccc(C(F)(F)F)cc2)c(C#N)c2nc3ccccc3n12.Cl.Cl,Activity,Plasmodium berghei [1],30.78%
same,microsomal CLint,[2],5.4 µL/min/mg
same,microsomal CLint,[3],12.7 µL/min/mg
same,microsomal CLint,[4],6.1 µL/min/mg
same,Tmax,Rattus norvegicus [5],16 h
same,AUClast,Rattus norvegicus [6],2076 µM·min
same,AUClast,Rattus norvegicus [7],1000 µM·min
same,Cmax,Rattus norvegicus [8],950 nM
same,Activity,Rattus norvegicus [9],0.21%
same,PPB,Plasma [10],98.3%
same,PPB,Plasma [11],95.3%
same,Activity,Plasmodium berghei [12],50.24%
same,Activity,Plasmodium berghei [13],71.22%
same,Activity,Plasmodium berghei [14],79.79%
same,Activity,Plasmodium berghei [15],23.51%
same,Activity,Plasmodium berghei [16],55.45%
same,Activity,Plasmodium berghei [17],62.25%
same,Activity,Plasmodium berghei [18],68.92%
same,half-life,[19],2.28 h
same,half-life,[20],4.74 h
same,half-life,[21],5.35 h
same,Activity,Plasmodium berghei [22],0%
same,Activity,Plasmodium berghei [23],38.35%
same,Activity,Plasmodium berghei [24],80.73%
same,Activity,Plasmodium berghei [25],95.72%
same,Activity,Plasmodium berghei [26],95.56%
same,MSD,Plasmodium berghei [27],4 days
same,Activity,Plasmodium berghei [28],7 days
same,Activity,Plasmodium berghei [29],14 days
same,Activity,Plasmodium berghei [30],14.3 days
same,Activity,Plasmodium berghei [31],14 days
same,t1/2(app),Rattus norvegicus [32],16.3 h
same,Activity,Rattus norvegicus [33],1.13%
same,MSD,Plasmodium berghei [34],13.3 days
same,MSD,Plasmodium berghei [35],12.7 days
same,Vz,Rattus norvegicus [36],7.5 L/kg
